Counter-ions that a name gives are not always drawn.
Legend:
[1] = test system: isolated pulmonary vessel; assay: Relaxant activity on blood vessels isolated from guinea pigs (pulmonary artery); settings: Cavia porcellus; guinea pig pulmonary artery, K+ depolarised, Ca2+ contraction; read-out: IC50 (relaxation of 50%)
Protocol: Determination of the relaxant activity of the compounds according to the invention on blood vessels isolated from guinea pigs.
The pulmonary artery of male guinea pigs (350-500 g) is isolated and cut into spiral tracts (1 mm wide, 15 mm long). […] After having removed the calcium from the tissues (Tyrode without calcium and 0.2 mM EDTA), the tracts are depolarised in the presence of a concentrated solution of K^+ ions (40 mM), which is produced by replacing the NaCl by equimolar amounts of KCl, and a contraction of long duration is then induced by Ca^2+ ions (0.5 mM).
The compounds studied are then introduced into the organ cell in increasing concentrations.
Each compound is tested on at least four vessel spiral tracts.

[2] = test system: anesthetised pigs; assay: Haemodynamic effects on anesthetised pigs; type: in vivo, pigs ("German land" race)
Protocol: Haemodynamic effects of the compounds according to the invention on anesthetised pigs or dogs
Pigs are of "German land" race (20-26 kg) and are used after fasting overnight.
In the case of pigs, sedation, analgesia and anesthesia are induced by ketamine HCl (20 mg/kg i.m.), methonidate HCl (10 mg/kg i.m.), xylacine HCl (3 mg/kg i.m.) and sodium pentobarbitol (25-30 mg/kg as bolus i.v. or 0.16 mg/kg/min as i.v. perfusion).
The pigs or dogs are placed under artificial respiration in ambient air. Analysis of the blood gases (pO2, pCO2) is carried out at regular intervals and oxygen can be supplied via the respirator, if necessary.
The haemodynamic parameters recorded include the left ventricular pressure (LVP; Millar PC350 Tip catheter inserted via the carotid artery), systemic blood pressure (BPs, BPd; full catheter in a femoral artery), the end pressure of the left ventricular diastole (LVEDP), the ventricular contractility (LVPdp/dtmax) and the heart rate (HR).
The haemodynamic variables are recorded continuously for 1 to 3 hours, as a function of the period of action of the compound.
The effects of the compounds studied are shown as the absolute difference with respect to the base value (bv) measured before administration of the compounds and are shown in Table VII (a,b,c).
An antianginal activity is estimated by a fall in the BPs and the LVEDP (fall in venous return).

[3] = test system: thoracic aorta; assay: Vasorelaxant effect on isolated vessels (rat thoracic aorta rings without endothelium, precontracted with noradrenalin); set-up: species or system Wistar rats
Procedure, shortened: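 Endothelium-denuded thoracic aorta rings from Wistar rats, held in Krebs-Ringer buffer (pH 7.4, 37 °C, 95% O2/5% CO2) under isometric tension and precontracted with 10^-7 M noradrenalin, received cumulative compound (10^-8 to 10^-4 M). Maximum relaxation given as percent; IC50 calculated when relaxation exceeded 50%.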

SMILES | IC50 [1] [µM] | BPs (min), period of action ([2]; pigs, 3,0 mg/kg i.d.) [min] | BPs, difference to base value ([2]; pigs, 3,0 mg/kg i.d.) [mmHg] | LVRDP (min), period of action ([2]; pigs, 3,0 mg/kg i.d.) [min] | LVRDP, difference to base value ([2]; pigs, 3,0 mg/kg i.d.) | Emax ([3]; Rattus norvegicus, maximum inhibition of noradrenalin effect, 10^-8 to 10^-4 M substance, read-out: Maximum Relaxation) [%] | IC50 ([3]; rat aorta, 10^-7 M noradrenalin contraction) [µM] | BPs, difference to base value ([2]; pigs, 1,0 mg/kg i.d.) [mmHg] | LVRDP, difference to base value ([2]; pigs, 1,0 mg/kg i.d.) [mmHg] | BPs (min), period of action ([2]; pigs, 10,0 mg/kg i.d.) [min] | BPs, difference to base value ([2]; pigs, 10,0 mg/kg i.d.) [mmHg] | LVRDP (min), period of action ([2]; pigs, 10,0 mg/kg i.d.) [min] | LVRDP, difference to base value ([2]; pigs, 10,0 mg/kg i.d.)
O=C(CNC(=O)[C@@H]1CSCN1)N[C@H]1CO[C@H]2[C@@H]1OC[C@@H]2O[N+](=O)[O-] [Compound 46, 5-[[2-[[(4-L-Thiazolidinyl)carbonyl]amino]-1oxoethyl]amino]-5-deoxy-2-O-nitro-1,4:3,6-dianhydro-L-iditol monohydrochloride] | 38 | > 120 | -30 | > 120 | -5,0 mmHg | 50 | 100 | – | – | – | – | – | –
O=[N+]([O-])O[C@@H]1CO[C@H]2[C@@H]1OC[C@@H]2O [IS-5-MN, isosorbide 5-mononitrate, reference compound] | > 100 | 60 | -5 | 60 | -3 mmHg | – | – | 0 | 0 | > 120 | -26 | > 120 | -3,0 mmHg

— US5591758A, “Organic nitrates, processes for their preparation and their use in the treatment of cardiovascular diseases” (Laboratoires Hoechst, SA, priority 1991, dated 1997)
